# Source: US9474755B2, “GLP-1 receptor modulators” (Receptos, Inc., priority 2014, dated 2016)
# Target: T1, GLP-1R (Homo sapiens, UniProt P43220)
# T1 construct: host or cells: CRE-bla CHO-K1
# Experiment: EC20 GLP-1(9-36) PAM cAMP Assay: dose response of compound in the presence of fixed concentration of GLP-1(9-36)
# Format: cell-based
# Details: GLP-1R CRE-bla CHO-K1 cells, in presence of fixed concentration of GLP-1(9-36), 30 min at 37° C.
# Method: EC20 GLP-1(9-36) PAM cAMP Assay: Dose Response of Compound in the Presence of Fixed Concentration of GLP-1 (9-36).
# GLP-1R CRE-bla CHO-K1 cells cultured in growth medium (DMEM-High glucose, 10% dialyzed FBS, 0.1 mM NEAA, 25 mM Hepes, 100 U/mL penicillin/100 μg/mL streptomycin, 5 μg/mL Blasticidin, 600 μg/mL Hygromycin) were trypsinized and plated in suspension into 384 well white flat bottom plates at 5000 cells/well in 12 μL assay buffer (Hanks Balanced Salt solution, 10 mM Hepes, 0.1% BSA, 10 pH 7.4). A 5× compound dose response curve (12-point) was generated in assay buffer containing 1.5 mM IBMX, 4% DMSO. GLP-1(9-36) was diluted to 4.2 μM in assay buffer containing 1.5 mM IBMX and 4% DMSO. The 5× compound dose response was added (3 μL), followed by 0.5 μL of GLP-1(9-36) and cells were incubated for 30 min at 37° C. Direct detection of cAMP was carried out using DiscoveRx HitHunter cAMP kit according to manufacturer's instructions and luminescence was read using a SpectraMax M5 plate reader. Luminescence was converted to total cAMP using a cAMP standard curve and data was analyzed by non-linear regression to determine the EC50 and Emax.
# T1 sequence (P43220 24-463): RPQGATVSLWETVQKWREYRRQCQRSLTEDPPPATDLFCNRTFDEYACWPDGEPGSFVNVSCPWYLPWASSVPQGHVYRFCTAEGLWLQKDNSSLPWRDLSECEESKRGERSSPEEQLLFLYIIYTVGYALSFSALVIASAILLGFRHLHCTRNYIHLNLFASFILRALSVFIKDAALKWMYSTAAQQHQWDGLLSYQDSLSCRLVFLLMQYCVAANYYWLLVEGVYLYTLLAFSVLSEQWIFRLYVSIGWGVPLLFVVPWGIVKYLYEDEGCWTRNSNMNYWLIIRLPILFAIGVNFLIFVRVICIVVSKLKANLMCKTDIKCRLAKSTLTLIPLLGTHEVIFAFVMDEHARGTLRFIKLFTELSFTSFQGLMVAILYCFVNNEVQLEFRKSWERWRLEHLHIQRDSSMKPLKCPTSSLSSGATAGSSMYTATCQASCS
# T1 sequence (P01275 100-127 partner limits assumed): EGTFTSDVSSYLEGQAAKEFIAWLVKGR
row,SMILES,EC50 [nM]
1,CCCC1CCC(C2CCC(c3cnc(-c4ccc(C[C@H](NC(=O)c5ccc(C6(C)CC6)cc5)C(=O)N5CC(C(=O)O)C5)cc4)nc3)CC2)CC1 (stereo partly drawn) [Compound 25],2500 to 5000
2,CC1(C)COC2(CC=C(c3cnc(-c4ccc(CC(NC(=O)c5ccc(C(C)(C)C)s5)C(=O)N5CC(C(=O)O)C5)cc4)nc3)CC2)OC1 (stereo not drawn) [Compound 43],5000 to 10000
3,CC(C)(C)c1ccc(C(=O)N[C@@H](Cc2ccc(-c3ncc(C4CCC(C(C)(C)C)CC4)cn3)cc2)C(=O)N2CC(C(=O)O)C2)s1 (stereo partly drawn) [Compound 41],5000 to 10000
4,CCCCCC1CC=C(c2cnc(-c3ccc(C[C@H](NC(=O)c4ccc(C(C)(C)C)s4)C(=O)N4CC(C(=O)O)C4)cc3)nc2)CC1 (stereo partly drawn) [Compound 38],500 to 2500
5,CCCC1CCC(C2CC=C(c3cnc(-c4ccc(C[C@H](NC(=O)c5ccc(C(C)(C)C)s5)C(=O)O)cc4)nc3)CC2)CC1 (stereo partly drawn) [Compound 9],500 to 2500
6,CC1(C)CCC(C2CC=C(c3cnc(-c4ccc(C[C@H](NC(=O)c5ccc(C(C)(C)C)s5)C(=O)O)cc4)nc3)CC2)CC1 (stereo partly drawn) [Compound 122],500 to 2500
7,CC1CC=C(c2cnc(-c3ccc(C[C@H](NC(=O)c4ccc(C(C)(C)C)s4)C(=O)N[C@H](C)C(=O)O)cc3)nc2)CC1 (stereo partly drawn) [Compound 55],2500 to 5000
8,C[C@@H](NC(=O)[C@H](Cc1ccc(-c2ncc(C3=CCCC(NC(=O)OC(C)(C)C)C3)cn2)cc1)NC(=O)c1ccc(C(C)(C)C)s1)C(=O)O (stereo partly drawn) [Compound 69],2500 to 5000
9,CC[C@H]1CC[C@H](C2CC=C(c3cnc(-c4ccc(C[C@H](NC(=O)c5ccc(C(C)(C)C)s5)C(=O)NCC5CCNC5)cc4)nc3)CC2)CC1 (stereo partly drawn) [Compound 108],500 to 2500
10,C[C@@H](NC(=O)[C@H](Cc1ccc(-c2ncc(C3=CC(=O)CC(c4ccccc4)C3)cn2)cc1)NC(=O)c1ccc(C(C)(C)C)s1)C(=O)O (stereo partly drawn) [Compound 49],5000 to 10000
11,CCCC1CCC(C2CC=C(c3cnc(-c4ccc(C[C@H](NC(=O)c5ccc(C6CC6)cc5)C(=O)N5CC(C(=O)O)C5)cc4)nc3)CC2)CC1 (stereo partly drawn) [Compound 24],< 500
12,"CCCC1CCC(C2CC=C(c3cnc(-c4ccc(C[C@@H](NC(=O)c5ccc(C(C)(C)C)s5)C(=O)N5CC(C(=O)O)C5)cc4)nc3)CC2)CC1 (stereo partly drawn) [Compound 81, 1-((2R)-2-(5-(tert-butyl)thiophene-2-carboxamido)-3-(4-(5-(4′-propyl-[1,1′-bi(cyclohexan)]-3-en-4-yl)pyrimidin-2-yl)phenyl)propanoyl) azetidine-3-carboxylic acid]",500 to 2500
13,CCc1ccc(C(=O)N[C@@H](Cc2ccc(-c3ncc(C4=CCC([C@H]5CC[C@H](CC)CC5)CC4)cn3)cc2)C(=O)N2CC(C(=O)O)C2)s1 (stereo partly drawn) [Compound 93],< 500
14,CCO[C@H]1CC[C@@H](C2CC=C(c3cnc(-c4ccc(C[C@H](NC(=O)c5ccc(C(C)(C)C)s5)C(=O)N5CC(C(=O)O)C5)cc4)nc3)CC2)CC1 (stereo partly drawn) [Compound 83],< 500
15,CCCC1CCC(C2CC=C(c3cnc(-c4ccc(C[C@H](NC(=O)c5ccc(CC(C)C)s5)C(=O)N5CC(C(=O)O)C5)cc4)nc3)CC2)CC1 (stereo partly drawn) [Compound 32],< 500
16,C[C@@H](NC(=O)[C@H](Cc1ccc(-c2ncc(C3=CCC(C)(C)C=C3)cn2)cc1)NC(=O)c1ccc(C(C)(C)C)s1)C(=O)O [Compound 60],500 to 2500
17,CC(C)(C)c1ccc(C(=O)N[C@@H](Cc2ccc(-c3ncc(C4=CCC(C(C)(C)C)CC4)cn3)cc2)C(=O)N2CC(C(=O)O)C2)s1 (stereo partly drawn) [Compound 36],< 500
18,CCCC1CC=C(c2cnc(-c3ccc(C[C@H](NC(=O)c4ccc(C(C)(C)C)s4)C(=O)N[C@H](C)C(=O)O)cc3)nc2)CC1 (stereo partly drawn) [Compound 52],500 to 2500

# Other lines, results leading:
row,EC50 [nM],SMILES
1,< 500,CCCC1CCC(C2CC=C(c3cnc(-c4ccc(C[C@H](NC(=O)c5ccc(C(C)C)cc5)C(=O)N5CC(C(=O)O)C5)cc4)nc3)CC2)CC1 (stereo partly drawn) [Compound 13]
2,< 500,CCCC1CCC(C2CC=C(c3cnc(-c4ccc(C[C@H](NC(=O)c5ccc(C(C)(C)C)s5)C(=O)N[C@@H](CO)C(=O)O)cc4)nc3)CC2)CC1 (stereo partly drawn) [Compound 73]
3,< 500,C[C@@H](NC(=O)[C@H](Cc1ccc(-c2ncc(C3=CC(C)(C)CC(C)(C)C3)cn2)cc1)NC(=O)c1ccc(C(C)(C)C)s1)C(=O)O [Compound 59]
4,< 500,CC[C@H]1CC[C@H](C2CC=C(c3cnc(-c4ccc(C[C@H](NC(=O)c5ccc(CC(C)C)s5)C(=O)N5CC(C(=O)O)C5)cc4)nc3)CC2)CC1 (stereo partly drawn) [Compound 96]
5,< 500,CCCc1ccc(C2CC=C(c3cnc(-c4ccc(C[C@H](NC(=O)c5ccc(C(C)(C)C)s5)C(=O)O)cc4)nc3)CC2)cc1 (stereo partly drawn) [Compound 121]
6,< 500,CC[C@H]1CC[C@H](C2CC=C(c3cnc(-c4ccc(C[C@H](NC(=O)c5ccc(C(C)C)s5)C(=O)N5CC(C(=O)O)C5)cc4)nc3)CC2)CC1 (stereo partly drawn) [Compound 103]
7,< 500,CCC1CCC(C2CC=C(c3cnc(-c4ccc(C[C@H](NC(=O)c5ccc(C(C)(C)C)s5)C(=O)N[C@H](C)C(=O)O)cc4)nc3)CC2)CC1 (stereo partly drawn) [Compound 70]
8,< 500,CC[C@H]1CC[C@H](C2CC=C(c3cnc(-c4ccc(C[C@H](NC(=O)c5ccc(C(F)(F)F)cc5)C(=O)N5CC(C(=O)O)C5)cc4)nc3)CC2)CC1 (stereo partly drawn) [Compound 100]
9,< 500,CCCC1CCC(C2CC=C(c3cnc(-c4ccc(CC(NC(=O)c5ccc(C(C)(C)C)s5)C(=O)N5CC(C(=O)O)C5)cc4)nc3)CC2)CC1C (stereo not drawn) [Compound 85]
10,< 500,CCCCCC1CCC(C2CC=C(c3cnc(-c4ccc(C[C@H](NC(=O)c5ccc(C(C)(C)C)s5)C(=O)N5CC[C@H](C(=O)O)C5)cc4)nc3)CC2)CC1 (stereo partly drawn) [Compound 3]
11,< 500,CC[C@H]1CC[C@H](C2CC=C(c3cnc(-c4ccc(C[C@H](NC(=O)c5ccc(C(C)(C)C)cc5)C(=O)N5CC(C(=O)O)C5)cc4)nc3)CC2)CC1 (stereo partly drawn) [Compound 94]
12,< 500,CCCC1CCC(C2CC=C(c3cnc(-c4ccc(C[C@H](NC(=O)c5cnc(C(C)(C)C)nc5)C(=O)N5CC(C(=O)O)C5)cc4)nc3)CC2)CC1 (stereo partly drawn) [Compound 15]
13,< 500,CC(=O)C1CC=C(c2cnc(-c3ccc(C[C@H](NC(=O)c4ccc(C(C)(C)C)s4)C(=O)N[C@H](C)C(=O)O)cc3)nc2)CC1 (stereo partly drawn) [Compound 61]
14,< 500,CCCC1CCC(C2CC=C(c3cnc(-c4ccc(C[C@H](NC(=O)c5ccc(C(C)(C)C)s5)C(=O)S(C)(=O)=O)cc4)nc3)CC2)CC1 (stereo partly drawn) [Compound 79]
15,< 500,CCc1ccc(C(=O)N[C@@H](Cc2ccc(-c3ncc(C4=CCC(C5CCC(C)(C)CC5)CC4)cn3)cc2)C(=O)N2CC(C(=O)O)C2)s1 (stereo partly drawn) [Compound 92]
16,< 500,CC[C@H]1CC[C@H](C2CC=C(c3cnc(-c4ccc(C[C@H](NC(=O)c5ccc(C6CC6)s5)C(=O)N5CC(C(=O)O)C5)cc4)nc3)CC2)CC1 (stereo partly drawn) [Compound 97]
17,< 500,"CC(C)(C)c1ccc(C(=O)N[C@@H](Cc2ccc(-c3ncc(C4=CCC([C@H]5CC[C@H](C)CC5)CC4)cn3)cc2)C(=O)N2CC(C(=O)O)C2)s1 (mixture of isomers) [Compound 44, 1-((S)-2-(5-(tert-butyl)thiophene-2-carboxamido)-3-(4-(5-((1RS,1′r,4′RS)-4′-methyl-[1,1′-bi(cyclohexan)]-3-en-4-yl)pyrimidin-2-yl)phenyl)propanoyl)azetidine-3-carboxylic acid]"
18,< 500,CC[C@H]1CC[C@H](C2CC=C(c3cnc(-c4ccc(C[C@H](NC(=O)c5ccc(C(C)(C)C)s5)C(=O)N5CCC[C@H]5C(=O)O)cc4)nc3)CC2)CC1 (stereo partly drawn) [Compound 105]
19,< 500,CCCC1CCC(C2CC=C(c3cnc(-c4ccc(C[C@H](NC(=O)c5ccc(C(C)(C)C)s5)C(=O)N[C@H](C(=O)O)[C@@H](C)O)cc4)nc3)CC2)CC1 (stereo partly drawn) [Compound 74]
20,< 500,"CC(C)(C)c1ccc(C(=O)N[C@@H](Cc2ccc(-c3ncc(C4=CCC([C@H]5CC[C@H](C)CC5)CC4)cn3)cc2)C(=O)O)s1 (mixture of isomers) [Compound 123, (S)-2-(5-(tert-butyl)thiophene-2-carboxamido)-3-(4-(5-((1RS,1′r,4′RS)-4′-methyl-[1,1′-bi(cyclohexan)]-3-en-4-yl)pyrimidin-2-yl)phenyl)propanoic acid]"
21,< 500,"CC[C@H]1CC[C@H](C2CC=C(c3cnc(-c4ccc(C[C@H](NC(=O)c5ccc(C(C)(C)C)s5)C(=O)N5CC(C(=O)O)C5)cc4)nc3)CC2)CC1 (mixture of isomers) [Compound 76, 1-((S)-2-(5-(tert-butyl)thiophene-2-carboxamido)-3-(4-(5-((1RS,1′r,4′RS)-4′-ethyl-[1,1′-bi(cyclohexan)]-3-en-4-yl)pyrimidin-2-yl)phenyl)propanoyl)azetidine-3-carboxylic acid]"
22,< 500,CCC[C@H]1CC[C@H](C2CC=C(c3cnc(-c4ccc(C[C@H](NC(=O)c5ccc(CC(C)C)s5)C(=O)N5CC(C(=O)O)C5)cc4)nc3)CC2)CC1 (stereo partly drawn) [Compound 118]
23,< 500,CCCc1ccc(C(=O)N[C@@H](Cc2ccc(-c3ncc(C4=CCC(C5CCC(CCC)CC5)CC4)cn3)cc2)C(=O)N2CC(C(=O)O)C2)cc1 (stereo partly drawn) [Compound 22]
24,< 500,"CCC[C@H]1CC[C@H](C2CC=C(c3cnc(-c4ccc(C[C@H](NC(=O)c5ccc(C(C)(C)C)cc5)C(=O)N5CC(C(=O)O)C5)cc4)nc3)CC2)CC1 (mixture of isomers) [Compound 14, 1-((S)-2-(4-(tert-butyl)benzamido)-3-(4-(5-((1RS,1′s,4′RS)-4′-propyl-[1,1′-bi(cyclohexan)]-3-en-4-yl)pyrimidin-2-yl)phenyl)propanoyl)azetidine-3-carboxylic acid]"
